Data published in ChEMBL document CHEMBL1201862, “PubChem BioAssay data set” (2004).
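Five compound concentrations were applied to cells in 96-well plates for 48 hours; endpoints were derived by simple linear interpolation of the resulting dose-response curve. Abbreviation: GI50, concentration required for 50% inhibition of growth.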 Active and inactive are the calls of the source. No stated cut-off is given here; in the data, active = GI50 up to about 1.1 µM and inactive = higher.

Columns and labels:
Test in all cases: NCI-60 cell line screen, 48 h
[1] = system: CCRF-CEM
[2] = system: RXF 393
[3] = system: NCI-H226
[4] = system: TK-10
[5] = system: DU-145
[6] = system: T47D
[7] = system: U-251
[8] = system: A498
[9] = system: M14
[10] = system: SK-MEL-28
[11] = system: IGROV-1
[12] = system: BT-549
[13] = system: NCI-H522
[14] = system: SNB-19
[15] = system: NCI/ADR-RES
[16] = system: SW-620
[17] = system: MCF7
[18] = system: CAKI-1

Measured: GI50

NC(=S)Nc1nc(=S)[nH]c2c1SC1=N/C(=C\c3ccco3)C(=O)N12
inactive: [1] 38.2 µM | [2] > 100 µM | [3] > 47.8 µM | [4] > 100 µM | [5] > 100 µM | [6] 61.8 µM | [7] > 100 µM | [8] > 100 µM | [9] > 60.7 µM | [10] > 100 µM | [11] 45.2 µM | [12] > 100 µM | [13] 27 µM | [14] > 100 µM | [15] > 100 µM | [16] > 100 µM | [17] 29.1 µM | [18] > 82.4 µM

C=C1CC2(C[C@@H](c3ccccc3)O[C@@H](c3ccccc3)C2)OC1=O (stereo partly drawn)
inactive: [1] 1.71 µM | [2] 1.94 µM | [3] 16 µM | [4] 1.8 µM | [5] 9.12 µM | [6] 1.85 µM | [7] 15.4 µM | [8] 9.95 µM | [9] 1.77 µM | [10] 1.86 µM | [11] 2.71 µM | [12] 1.76 µM | [13] 1.48 µM | [14] 15.2 µM | [15] 3.06 µM | [16] 1.67 µM | [17] 2.13 µM | [18] 1.97 µM

N/C(=N\Nc1cccc(Cl)c1)c1cccnc1
inactive: [1] 18.6 µM | [2] 23.1 µM | [3] 33.9 µM | [4] 28.6 µM | [5] 82.2 µM | [6] 18.9 µM | [7] 41.8 µM | [8] 22.2 µM | [9] 17.1 µM | [10] 72.8 µM | [11] 70.6 µM | [12] > 69 µM | [13] 29.6 µM | [14] 58.9 µM | [15] 38.7 µM | [16] 54.2 µM | [17] 38.7 µM | [18] 3.49 µM

O=C1/C(=C/c2n[nH]cc2-c2ccc(Cl)cc2)C(=O)N(c2ccccc2)C1c1ccccc1 (stereo not drawn)
inactive: [1] 17.6 µM | [2] 14.3 µM | [3] 24.2 µM | [4] 27.5 µM | [5] 20.6 µM | [6] 1.69 µM | [7] 19.9 µM | [8] 20.6 µM | [9] 12.9 µM | [10] 17.7 µM | [11] 16.6 µM | [12] 14.6 µM | [13] 7.74 µM | [14] 27.4 µM | [15] 21.6 µM | [16] 18.3 µM | [17] 25.9 µM | [18] 10.1 µM

Cc1ccc(C[N+](C)(C)N)cc1C
inactive: [1] > 10 µM | [2] > 10 µM | [3] > 10 µM | [4] > 10 µM | [5] > 10 µM | [6] > 10 µM | [7] > 10 µM | [8] > 10 µM | [9] > 10 µM | [10] > 10 µM | [11] > 10 µM | [12] > 10 µM | [13] > 10 µM | [14] > 10 µM | [15] > 10 µM | [16] > 10 µM | [17] > 10 µM | [18] > 10 µM

CCCC(=O)N1CCN(c2ccc3c(c2)OC(C)O3)CC1 (stereo not drawn)
inactive: [1] > 100 µM | [2] > 100 µM | [3] > 100 µM | [4] > 100 µM | [5] > 100 µM | [6] > 100 µM | [7] > 100 µM | [8] > 100 µM | [9] > 100 µM | [10] > 100 µM | [11] > 100 µM | [12] > 100 µM | [13] > 100 µM | [14] > 100 µM | [15] > 100 µM | [16] > 100 µM | [17] > 100 µM | [18] > 100 µM

Cc1cc(C)n(C2OC(CO)C(O)C(O)C2O)c(=S)c1C#N (stereo not drawn)
inactive: [1] > 100 µM | [2] > 100 µM | [3] > 100 µM | [4] > 100 µM | [5] > 100 µM | [6] > 100 µM | [7] > 100 µM | [8] > 100 µM | [9] > 100 µM | [10] > 100 µM | [11] > 100 µM | [12] > 100 µM | [13] > 100 µM | [14] > 100 µM | [15] > 100 µM | [16] > 100 µM | [17] > 100 µM | [18] > 100 µM

O=C1CC2OCC=C3CN4CCC5(C(=O)O)C(N1)C2C3CC45 (stereo not drawn)
inactive: [1] > 100 µM | [2] > 100 µM | [3] > 100 µM | [4] > 100 µM | [5] > 100 µM | [6] > 100 µM | [7] > 100 µM | [8] > 100 µM | [9] > 100 µM | [10] > 100 µM | [11] > 100 µM | [12] > 100 µM | [13] > 100 µM | [14] > 100 µM | [15] > 100 µM | [16] > 100 µM | [17] > 100 µM | [18] > 100 µM

CCCCCCCC(=O)OC[n+]1cccc(-c2c(COC(=O)NC(C)C)c(COC(=O)NC(C)C)c3n2CCC3)c1
inactive: [1] 21.2 µM | [2] 44.2 µM | [3] 97.5 µM | [4] > 100 µM | [5] > 83.9 µM | [6] > 93.3 µM | [7] > 72.8 µM | [8] 35.3 µM | [9] 98.2 µM | [10] > 100 µM | [11] > 51.2 µM | [12] > 84.5 µM | [13] 40.4 µM | [14] > 100 µM | [15] > 100 µM | [16] > 50.5 µM | [17] 45.6 µM | [18] 18.9 µM

O=C(N/N=C\c1ccc([N+](=O)[O-])s1)c1ccncc1
inactive: [1] 6.52 µM | [2] 16.9 µM | [3] 5.15 µM | [4] 23.1 µM | [5] 20.7 µM | [6] 21.2 µM | [7] 17.7 µM | [8] 23.4 µM | [9] 11.6 µM | [10] 35.3 µM | [11] 10.3 µM | [12] 11.3 µM | [13] 4.75 µM | [14] 33.4 µM | [15] 22.8 µM | [16] 10.8 µM | [17] 3.02 µM | [18] 27.9 µM

CC1=C(CCC(C)CO)O[C@H]2C[C@H]3[C@@H]4CC[C@H]5C[C@@H](O)CC[C@]5(C)[C@H]4CC(=O)[C@]3(C)[C@@H]12 (stereo partly drawn)
inactive: [1] 4.89 µM | [2] 29.1 µM | [3] 27.2 µM | [4] 19.8 µM | [5] 20.6 µM | [6] 7.03 µM | [7] 18 µM | [8] 20.3 µM | [9] 10.6 µM | [10] 22.1 µM | [11] 12.6 µM | [12] 16 µM | [13] 9.62 µM | [14] 22.3 µM | [15] 9.48 µM | [16] 35.6 µM | [17] 23.6 µM | [18] 27.7 µM
